Data taken from patent publication US8927547B2, “Pyrimidine derivatives” (Noviga Research AB, priority 2010, dated 2015).

Each compound was assayed on CCRF-CEM cancer cells - leukaemia (assay: Fluorometric Microculture Cytotoxicity Assay (FMCA), CCRF-CEM). Details: Homo sapiens, 72 h incubation.
Type: cell-based
Source text: The Fluorometric Microculture Cytotoxicity Assay, FMCA, is a three day non-clonogenic microplate-based cell viability assay used for measurement of the cytotoxic and/or cytostatic effect of compounds in vitro (Lindhagen, E., et al. Nat Protoc, 2008. 3(8): p. 1364-9). FMCA (Larsson, R. and P. Nygren, Anticancer Res, 1989. 9(4): p. 1111-9) represents a valuable method to measure cytotoxicity in a number of cell types, both cell lines and primary cells from patients (Larsson, R., et al., Int J Cancer, 1992. 50(2): p. 177-85; Fridborg, H., et al., Eur J Cancer, 1999. 35(3): p. 424-32; Dhar, S., et al., Br J Cancer, 1996. 74(6): p. 888-96).
FMCA is based on the principle that fluorescein diacetate (FDA) is converted to the fluorescent probe fluorescein by esterases in the plasma membranes of living cells. For experiments, 96 or 384-well microplates are prepared with compounds and stored at −70° C. until use. Cells are then seeded into the drug-prepared plates and placed in an incubator for 72 h. On the last day of incubation, the plates are washed and a buffer containing FDA is added and incubated with the cells for 45 minutes. Finally the fluorescence per well is measured in a fluorometer and a Survival Index % (SI) for each compound-treated well is calculated with the equation: Compound-treated cells minus blank divided by control cells minus blank. A high SI-value indicates a large percentage of living cells and vice versa.
In subsequent experiments, compounds were tested, along with kinase inhibitors (dasatinib, pazopanib, sorafenib, and sunitinib) as described above. Initially, the acute lymphoblastic leukaemia cell line CCRF-CEM (see e.g. Foley G E, et al. Cancer 1965, 18, 522-529) was used throughout. In the assay plates, medium was added to six empty wells (blank wells) and wells were filled with PBS and cell suspension and served as control wells. SI-values were then calculated for each compound-treated well as described above. All experiments were conducted twice and a new batch of plates was prepared for each experiment.
For dose-response experiments, 384-well plates were prepared as follows:
Compounds of the invention as well as kinase inhibitors sorafenib, sunitinib, dasatinib, and pazopanib (reference compounds) were diluted with PBS to a concentration which was ten-times higher than the desired starting concentration. Then, a Biomek 2000 liquid handling system was employed to serially dilute the compounds in a deep-well 384-well plate. From this plate, assay plates containing 5 μl compound per well were prepared with the Biomek 2000. Certain compounds precipitated when diluted with PBS, and these compounds were therefore prepared in a 96-well plate manually as described above using culture medium RPMI 1640 instead of PBS.
The compounds were also tested at five concentrations, with five times serial dilution on the following cell types: CCRF-CEM, hTERT-RPE1 (normal retinal epithelial cells), hRPTEpiC (normal renal cells) and PBMC (peripheral blood mononuclear cells). Each experiment was performed three times, except for PBMC and hRPTEpiC, which were performed twice. SI-values were calculated, graphs were plotted using GraphPadPrism 5.0 (GraphPad Software Inc. La Jolla, Calif.) and EC50-values for each cell type and compound were determined from the curves.
`c1cc(NCc2ccc3[nH]ccc3c2)nc(Nc2ccc3[nH]ccc3c2)n1` [Example 2, N^4-(1H-indol-5-ylmethyl)-N^2-(1H-indol-5-yl)pyrimidine-2,4-diamine] gave an EC50 of 4.83 µM.
`Cc1cc2cc(Nc3nccc(NCc4ccc5[nH]ccc5c4)n3)ccc2[nH]1` [Example 3, N^4-(1H-indol-5-ylmethyl)-N^2-(2-methyl-1H-indol-5-yl)pyrimidine-2,4-diamine] was tested, and the EC50 was 4.25 µM.
In the case of `c1cc(NCc2ccc3[nH]ccc3c2)nc(Nc2ccc3[nH]ncc3c2)n1` [Example 4, N^4-(1H-indol-5-ylmethyl)-N^2-(1H-indazol-5-yl)pyrimidine-2,4-diamine], the EC50 is reported as 4.07 µM.
Work on `c1ccc2c(CCNc3nccc(NCc4ccc5[nH]ccc5c4)n3)c[nH]c2c1` [Example 9, N^2-[2-(1H-indol-3-yl)ethyl]-N^4-(1H-indol-5-ylmethyl)pyrimidine-2,4-diamine] yielded an EC50 of 8.73 µM.
`Oc1ccc2[nH]cc(CCNc3nccc(NCc4ccc5[nH]ccc5c4)n3)c2c1` [Example 10, 3-{2-[4-(1H-indol-5-ylmethylamino)-pyrimidin-2-ylamino]ethyl}-1H-indol-5-ol] gave an EC50 of 10.2 µM.
For `Cc1ccc2[nH]cc(CCNc3nccc(NCc4ccc5[nH]ccc5c4)n3)c2c1` [Example 11, N^4-(1H-indol-5-ylmethyl)-N^2-[2-(5-methyl-1H-indol-3-yl)ethyl]pyrimidine-2,4-diamine], the EC50 was 2.88 µM.
Work on `Cc1cc2cc(CNc3ccnc(Nc4cccc5[nH]ccc45)n3)ccc2[nH]1` [Example 13, N^2-(1H-indol-4-yl)-N^4-(2-methyl-1H-indol-5-ylmethyl)pyrimidine-2,4-diamine] yielded an EC50 of 0.55 µM.
`Cc1cc2cc(CNc3ccnc(NCCc4c[nH]c5ccccc45)n3)ccc2[nH]1` [Example 17, N^2-(2-(1H-indol-3-yl)-ethyl)-N^4-(2-methyl-1H-indol-5-ylmethyl)pyrimidine-2,4-diamine] showed an EC50 of 7.28 µM.
`c1cc(Nc2nccc(NCc3ccc4[nH]ncc4c3)n2)c2cc[nH]c2c1` [Example 18, N^2-(1H-indol-4-yl)-N^4-(1H-indazol-5-ylmethyl)pyrimidine-2,4-diamine] gave an EC50 of 0.71 µM.
In the case of `c1cc(Nc2nccc(NCc3ccc4cc[nH]c4c3)n2)c2cc[nH]c2c1` [Example 20, N^4-(1H-indol-6-ylmethyl)-N^2-(1H-indol-4-yl)pyrimidine-2,4-diamine], the EC50 is reported as 1.01 µM.
In the case of `c1cc(Nc2ccnc(NCc3ccc4[nH]ccc4c3)n2)c2cc[nH]c2c1` [Example 23, N^2-(1H-indol-5-ylmethyl)-N^4-(1H-indol-4-yl)pyrimidine-2,4-diamine], the EC50 is reported as 1.62 µM.
Compound `c1ccc2c(CCNc3ccnc(NCc4ccc5[nH]ccc5c4)n3)c[nH]c2c1` [Example 25, N^4-[2-(1H-indol-3-yl)ethyl]-N^2-(1H-indol-5-ylmethyl)pyrimidine-2,4-diamine] has an EC50 of 3.16 µM.
For `Oc1ccc2[nH]cc(CCNc3ccnc(NCc4ccc5[nH]ccc5c4)n3)c2c1` [Example 26, 3-{2-[2-(1H-indol-5-ylmethylamino)-pyrimidin-4-ylamino]ethyl}-1H-indol-5-ol], the EC50 was 7.01 µM.
For `Cc1ccc2[nH]cc(CCNc3ccnc(NCc4ccc5[nH]ccc5c4)n3)c2c1` [Example 27, N^2-(1H-indol-5-ylmethyl)-N^4-[2-(5-methyl-1H-indol-3-yl)ethyl]pyrimidine-2,4-diamine], the EC50 was 4.17 µM.
`COc1ccc2[nH]cc(CCNc3ccnc(NCc4ccc5[nH]ccc5c4)n3)c2c1` [Example 28, N^2-(1H-indol-5-ylmethyl)-N^4-[2-(5-methoxy-1H-indol-3-yl)ethyl]pyrimidine-2,4-diamine] was tested, and the EC50 was 3.1 µM.
With `c1cc(Nc2ccnc(NCc3ccc4[nH]ncc4c3)n2)c2cc[nH]c2c1` [Example 29, N^2-(1H-indazol-5-ylmethyl)-N^4-(1H-indol-4-yl)pyrimidine-2,4-diamine] the EC50 was 2.78 µM.
For `Cc1cc(NCc2ccc3[nH]ccc3c2)nc(NCCc2c[nH]c3ccc(O)cc23)n1` [Example 32, 3-{2-[4-(1H-indol-5-ylmethylamino)-6-methyl-pyrimidin-2-ylamino]-ethyl}-1H-indol-5-ol], the EC50 was 7.81 µM.
